The record followed here is patent publication US20130014428A1, “METHODS OF MONITORING AND CONTROLLING THE WALNUT TWIG BEETLE, PITYOPHTHORUS JUGLANDIS” (The United States of America as Represented by the …, priority 2011, published 2013).

Assay [1] relates to walnut twig beetle (WTB), Pityophthorus juglandis. Description: Example 1 Field Test 2: flight response to X with and without racemic conophthorin. The format is in vivo. Conditions: tested as a racemic mixture. On the procedure:
(§1) Field Bioassays of Semiochemicals. To test the attractiveness of the various compounds of interest, some of the commercially available materials listed above were poured into 15 ml capped polyethylene bottles (Product #s A1-1050/002, A1-1055/002; Contech Enterprises Inc., Delta, British Columbia, Canada) and attached to yellow sticky card traps (Trécé, Adair, OK). In addition, synthesized (+) and (−) enantiomers of trans-conophthorin were tested in 400 μl polyethylene Eppendorf microcentrifuge tubes. Four field studies were conducted (Table 2) that tested the flight responses to: 3-methyl-2-buten-l-ol and related isomers (Field Test 1); 3-methyl-2-buten-l-ol with and without racemic trans-conophthorin (Field Test 2); 3-methyl-2-buten-l-ol with and without the purified enantiomers of trans-conophthorin (Field Test 3); and 3-methyl-2-buten-l-ol with and without racemic chalcogran (Field Test 4).
(§2) Statistical Analysis. Field Tests 1-4 were each analyzed for treatment effect by using Friedman's non-parametric analysis of variance. (See Zar, J. H. 2010. Biostatistical Analysis, 5th Ed. Pearson Prentice Hall, New Jersey). Males and females were subjected to separate analyses. All treatments within experiments yielding a significant treatment effect were compared by using an a posteriori Nemenyi test (Zar 2010) with experimentwise α=0.05. Sex ratios of responding WTB were determined using Cochran's method for unbiased sampling (See Cochran, W. G. 1977. Sampling Techniques, 3rd ed. John Wiley, New York), with 95% confidence intervals calculated by using the Clopper-Pearson method. (See Zar, J. H. 2010. Biostatistical Analysis, 5th Ed. Pearson Prentice Hall, New Jersey).

For the next assay, the system named is P. juglandis. Briefly: GC-EAD (electroantennal detection) of volatile extract. The arrangement: species or system Pityophthorus juglandis. Conditions: extract of J. hindsii with male and female P. juglandis feeding 45 hr. On the procedure:
Gas Chromatography-Electroantennal Detection (GC-EAD). GC-EAD analysis was performed on the extract of walnut (Juglans hindsii) with male and female P. juglandis feeding for 45 hr (pentane extract (7)). The sample was analyzed with an HP5890 GC with the following conditions: DB-5 column 30 m×0.32, oven 50° C. for 1 min, temperature programmed at 20° C./min to a final temperature of 280° C.

Assay [2] relates to WTB. Briefly: Example 2 Field Test 3: X and racemic trans-pityol. The format is in vivo, Pityophthorus juglandis. On the procedure: Finally, a flight bioassay of the effect of the compound racemic trans-“pityol” [2-(1-hydroxy-1-methylethyl)-5-methyltetrahydrofuran] was conducted in late summer/early fall at Wolfskill Experimental Orchards. Pityol is a component of the aggregation pheromone of conifer-infesting Pityophthorus species. The response of WTB to racemic trans-pityol (formulated in a polyvinylchloride plastic bubble cap release device, 40 mg load, 0.2 mg/d release rate at 20° C., product #300000272, Contech Enterprises) and pityol in combination with 3-methyl-2-buten-1-ol (release rate 15-80 mg/d, LDPE plastic pouch Contech) was tested (Table 3, Field Test 3). The four treatments were replicated in three spatial blocks and the treatments were re-randomized among the four trap stations in a block each time the traps were emptied (nearly every day).
(§3) Statistical Analyses. Analysis of treatment effects for the pouch vs. bottle experiment was done by using a sign test. (See Zar, J. H. 2010. Biostatistical Analysis. 5th ed. Pearson Prentice Hall, Englewood Cliffs, N.J.) The other four experiments were analyzed for treatment effect by using Friedman's non-parametric analysis of variance. Id. In all experiments, males and females were analyzed separately. All treatments within experiments yielding a significant treatment effect were compared by using an a posteriori Nemenyi test with experimentwise α=0.05. Id. For all experiments, differences among proportions of female WTB responding to treatments were analyzed by comparing 95% confidence intervals determined with the Clopper-Pearson method. Id.

The subject of assay [3] is walnut twig beetle (WTB), Pityophthorus juglandis. Briefly: Example 1 Field Test 3: flight response to X with and without enantiomers of trans-conophthorin. The format is in vivo. Conditions: enantiomers of Y tested separately. Here is the method: as §1, §2
For assay [4] the test system is unchanged. Description: Example 1 Field Test 1: flight response to X and related isomers, yellow sticky card traps. Type of assay: in vivo. Conditions: Davis CA; for trap catches, female WTB / trap catches, male WTB: about three months in summer, N=21. Here is the method:
Field Bioassays of Semiochemicals. […] Contech Enterprises Inc., Delta, British Columbia, Canada) and attached to yellow sticky card traps ([…], OK). In addition, synthesized (+) and (-) enantiomers of trans-conophthorin were tested in 400 μl polyethylene Eppendorf microcentrifuge tubes. Four field studies were conducted (Table 2) that tested the flight responses to: 3-methyl-2-buten-l-ol and related isomers (Field Test 1); 3-methyl-2-buten-l-ol with and without racemic trans-conophthorin (Field Test 2); 3-methyl-2-buten-l-ol with and without the purified enantiomers of trans-conophthorin (Field Test 3); and 3-methyl-2-buten-l-ol with and without racemic chalcogran (Field Test 4). [table] Statistical Analysis. Field Tests 1-4 were each analyzed for treatment effect by using Friedman's non-parametric analysis of variance. (See Zar, J. H. 2010. Biostatistical Analysis, 5th Ed. Pearson Prentice Hall, New Jersey). Males and females were subjected to separate analyses. All treatments within experiments yielding a significant treatment effect were compared by using an a posteriori Nemenyi test (Zar 2010) with experimentwise α=0.05. Sex ratios of responding WTB were determined using Cochran's method for unbiased sampling (See Cochran, W. G. 1977. Sampling Techniques, 3rd ed. John Wiley, New York), with 95% confidence intervals calculated by using the Clopper-Pearson method. (See Zar, J. H. 2010. Biostatistical Analysis, 5th Ed. Pearson Prentice Hall, New Jersey).

Assay [5] relates to WTB. Description: Example 2 Field Test 1: X in combination with X-3 and X-2. Type of assay: in vivo, Pityophthorus juglandis. Conditions: alone or in combination, at the release rates tested. Here is the method:
as §3, with “Field Bioassays of 3-methyl-2-buten-1-ol in combination with other compounds. The flight response of WTB to 3-methyl-2-buten-1-ol in combination with other compounds was also tested. […] Louis, Mo. […] The five treatments were replicated in three spatial blocks and the treatments were re-randomized among the five trap stations in a block each time the traps were emptied (nearly every day). [table] Statistical” for “Statistical”

Assay [6] deals with walnut twig beetle (WTB), Pityophthorus juglandis. Description: Example 1 Field Test 4: flight response to X with and without racemic chalcogran. The format is in vivo. On the procedure:
as §1, §2

Setting [7] is: 4-unit Lindgren funnel traps, X 15-80 mg/d, pityol 0.2 mg/d, N=93.
Setting [8] is: yellow sticky card traps, about one month late summer, Davis CA, N=13.

`CC1CCCC2(CCCO2)O1` (racemic) [Y, 7-methyl-1,6-dioxaspiro[4,5]decane]: in assay [1], the “effect on flight response” value is reported as “interruptive or repellent”. The “antennal activity by GC-EAD” value in the assay on P. juglandis is listed as “antenally active”.

Consider `CC1CCC(C(C)(C)O)O1` (racemic) [pityol, 2-(1-hydroxy-1-methylethyl)-5-methyltetrahydrofuran], for which the “proportion of females responding” value in the assay on WTB [2] (4-unit Lindgren funnel traps) was determined as 0.24. In the assay with WTB [2] (setting [7]), the “trap catches, female WTB” value came to 11 and the “trap catches, male WTB” value worked out at 32. The “effect on response to 3-methyl-2-buten-1-ol” value in the assay on WTB [2] (at the release rates tested) is “did not significantly affect the response to 3-methyl-2-buten-1-ol”.

In the case of `CC1CCCC2(CCCO2)O1` (single isomer, unassigned; (-)) [(−)-Y, (−)-trans-conophthorin], the “effect on flight response” value in assay [3] is on record as “behaviorally active component”.

For `CC(C)=CC=O` [X-1, 3-methyl-2-butenal], in assay [4], the “proportion of females responding” value was found to be 0.65; the “trap catches, female WTB” value came out at 20; the “trap catches, male WTB” value is reported as 11.

As for `CC(C)CCO` [X-2, 3-methyl-1-butanol], in the assay with WTB [5], the “effect on flight response to 3-methyl-2-buten-1-ol” value is “did not significantly affect the flight response of WTB”. Also, in assay [4], the “proportion of females responding” value was 0.48; the “trap catches, female WTB” value is given as 21; the “trap catches, male WTB” value stood at 23.

Consider `C=C(C)CCO` [X-3, 3-methyl-3-buten-1-ol], for which, in the assay on WTB [5], the “effect on flight response to 3-methyl-2-buten-1-ol” value was “did not significantly affect the flight response of WTB”. For the same compound, in assay [4], the “proportion of females responding” value is 0.33; the “trap catches, female WTB” value is recorded as 2; the “trap catches, male WTB” value was 4.

For the compound `CCC1CCC2(CCCO2)O1` (stereo not shown) [Z, 2-ethyl-1,6,-dioxaspiro [4,4]nonane], in assay [6] (tested as a racemic mixture), the “effect on flight response” value was “interruptive or repellent”. For the same compound, in assay [6] (yellow sticky card traps, Davis CA), the “proportion of females responding” value was determined as 0.67. Besides, in assay [6] (setting [8]), the “trap catches, female WTB” value is “½” and the “trap catches, male WTB” value is listed as “½”.
